Measurements taken from ChEMBL document CHEMBL1201862, “PubChem BioAssay data set” (2004).
Activity calls are given as the source filed them.

Tests used:
[1] = target: T1, Small ubiquitin-related modifier 1 (Homo sapiens, UniProt P63165); experiment: SUMO1 protein-protein binding blockers, potency – biochemical, FRET, dose response (AID 624383); format: functional; details: read-out: IC50_Mean
Beta-galactosidase = Beta-galactosidase (Escherichia coli, UniProt Q8VNN2); experiment: detection-enzyme interference by beta-gal modulators – biochemical, E. coli enzyme, set 3, artefact control for CCR6 antagonist project, dose response (AID 504712); format: functional
[2] = target: T2, Probable nicotinate-nucleotide adenylyltransferase (Staphylococcus aureus (strain N315), UniProt P65502); format: functional, Staphylococcus aureus subsp. aureus N315;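 as to IC50 Mean: confirmatory dose-response retesting of NadD inhibitor hits first found in an ultra-high-throughput screen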
T2 sequence (P65502 whole entry): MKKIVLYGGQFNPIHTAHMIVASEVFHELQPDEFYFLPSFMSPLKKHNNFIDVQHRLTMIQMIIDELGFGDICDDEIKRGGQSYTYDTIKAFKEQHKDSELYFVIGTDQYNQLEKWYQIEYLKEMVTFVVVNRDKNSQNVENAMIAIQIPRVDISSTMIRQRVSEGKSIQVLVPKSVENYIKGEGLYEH

[3] = target: T3, Small ubiquitin-related modifier 2 (Homo sapiens, UniProt P61956); experiment: disruption of SUMO2 interaction with SIM peptide – biochemical, fluorescence polarization, uHTS hits, selectivity assay for SUMO1 interaction inhibitor project, dose response (AID 624385); format: functional; details: read-out: IC50_Mean
T3 sequence (P61956 whole entry): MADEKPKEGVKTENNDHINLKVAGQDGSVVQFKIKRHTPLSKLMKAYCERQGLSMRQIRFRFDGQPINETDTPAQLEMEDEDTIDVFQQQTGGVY

[4] = target: T3, Small ubiquitin-related modifier 2; experiment: SUMO2 binding disruption by SUMO1 hits – biochemical, FRET, human SUMO2, uHTS hits, selectivity assay for SUMO1 interaction inhibitor project, dose response (AID 624384); format: functional; details: read-out: IC50_Mean
[5] = target: DNA (cytosine-5)-methyltransferase 1 (Homo sapiens, UniProt P26358); experiment: inhibition of DNA methylation by DNMT1 – biochemical, fluorescent molecular beacon, confirmation (AID 602386); format: functional
Sequence of DNA (cytosine-5)-methyltransferase 1 (P26358 whole entry): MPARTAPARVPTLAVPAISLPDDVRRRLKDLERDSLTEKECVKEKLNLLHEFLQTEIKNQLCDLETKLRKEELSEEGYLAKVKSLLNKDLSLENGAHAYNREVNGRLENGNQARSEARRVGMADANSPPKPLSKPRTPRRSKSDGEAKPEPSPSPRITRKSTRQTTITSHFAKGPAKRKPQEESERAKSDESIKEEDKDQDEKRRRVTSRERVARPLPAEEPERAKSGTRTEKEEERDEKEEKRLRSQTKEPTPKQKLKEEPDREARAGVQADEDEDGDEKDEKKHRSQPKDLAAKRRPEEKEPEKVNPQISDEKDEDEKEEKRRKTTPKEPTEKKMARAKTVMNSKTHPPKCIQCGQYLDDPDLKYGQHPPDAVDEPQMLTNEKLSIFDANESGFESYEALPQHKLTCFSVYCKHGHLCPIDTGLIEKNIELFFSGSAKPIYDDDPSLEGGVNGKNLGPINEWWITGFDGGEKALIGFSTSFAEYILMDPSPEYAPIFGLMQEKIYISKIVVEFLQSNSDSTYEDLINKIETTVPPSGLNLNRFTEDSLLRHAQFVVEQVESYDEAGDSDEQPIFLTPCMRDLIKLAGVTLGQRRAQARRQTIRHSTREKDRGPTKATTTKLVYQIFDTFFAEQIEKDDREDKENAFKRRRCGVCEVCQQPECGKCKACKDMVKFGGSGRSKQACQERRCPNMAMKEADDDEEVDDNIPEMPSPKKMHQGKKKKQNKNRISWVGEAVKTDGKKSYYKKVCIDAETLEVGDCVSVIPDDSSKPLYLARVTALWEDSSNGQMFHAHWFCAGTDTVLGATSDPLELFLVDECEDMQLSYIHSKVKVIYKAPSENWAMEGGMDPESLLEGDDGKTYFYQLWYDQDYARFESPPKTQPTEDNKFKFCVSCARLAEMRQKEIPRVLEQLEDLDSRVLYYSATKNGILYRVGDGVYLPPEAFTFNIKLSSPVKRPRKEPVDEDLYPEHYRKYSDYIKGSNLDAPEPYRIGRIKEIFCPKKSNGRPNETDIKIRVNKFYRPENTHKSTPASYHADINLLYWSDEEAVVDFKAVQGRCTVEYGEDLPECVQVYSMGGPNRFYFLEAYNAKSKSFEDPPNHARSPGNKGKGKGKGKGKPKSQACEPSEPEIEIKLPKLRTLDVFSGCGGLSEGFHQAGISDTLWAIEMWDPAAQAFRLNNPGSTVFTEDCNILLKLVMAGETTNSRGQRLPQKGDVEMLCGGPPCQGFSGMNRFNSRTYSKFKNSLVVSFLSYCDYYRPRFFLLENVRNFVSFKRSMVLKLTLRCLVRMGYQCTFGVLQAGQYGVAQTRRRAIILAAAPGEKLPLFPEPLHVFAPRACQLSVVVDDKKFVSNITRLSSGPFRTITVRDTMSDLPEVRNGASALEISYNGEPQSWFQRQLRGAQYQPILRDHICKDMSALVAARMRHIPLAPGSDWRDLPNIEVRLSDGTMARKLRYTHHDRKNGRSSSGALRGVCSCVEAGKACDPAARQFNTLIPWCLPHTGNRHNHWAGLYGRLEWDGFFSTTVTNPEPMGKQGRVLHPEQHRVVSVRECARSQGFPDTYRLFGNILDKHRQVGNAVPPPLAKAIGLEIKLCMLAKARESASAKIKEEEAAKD

[6] = target: T2, Probable nicotinate-nucleotide adenylyltransferase; format: functional, Staphylococcus aureus subsp. aureus N315; details: read-out: IC50_Mean
[7] = target: T1, Small ubiquitin-related modifier 1; experiment: SUMO1 protein interaction blockers, potency – biochemical, fluorescence polarization, uHTS hits, dose response (AID 624382); format: functional; details: read-out: IC50_Mean
Coagulation factor XII = target: T4, Coagulation factor XII (Homo sapiens, UniProt P00748); experiment: activated coagulation factor XII inhibitor potency, concentration-effect curve, cell-free (AID 716); format: functional
T4 sequence (P00748 whole entry): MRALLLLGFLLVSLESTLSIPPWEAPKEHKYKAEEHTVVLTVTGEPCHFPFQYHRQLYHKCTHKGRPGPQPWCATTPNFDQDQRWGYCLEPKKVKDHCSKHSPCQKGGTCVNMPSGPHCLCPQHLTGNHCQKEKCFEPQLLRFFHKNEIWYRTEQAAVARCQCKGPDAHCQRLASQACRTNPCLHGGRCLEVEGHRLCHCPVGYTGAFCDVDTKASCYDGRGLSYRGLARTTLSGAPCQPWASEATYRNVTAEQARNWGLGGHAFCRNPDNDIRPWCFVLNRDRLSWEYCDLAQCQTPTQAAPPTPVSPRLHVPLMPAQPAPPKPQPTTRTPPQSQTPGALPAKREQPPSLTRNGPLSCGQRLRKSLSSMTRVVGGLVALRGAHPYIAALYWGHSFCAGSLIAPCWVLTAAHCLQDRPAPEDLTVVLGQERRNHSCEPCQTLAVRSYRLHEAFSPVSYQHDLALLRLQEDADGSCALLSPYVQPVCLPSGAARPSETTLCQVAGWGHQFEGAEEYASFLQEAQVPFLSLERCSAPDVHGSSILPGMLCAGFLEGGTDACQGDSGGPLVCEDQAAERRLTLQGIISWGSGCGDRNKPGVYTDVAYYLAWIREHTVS

[8] = target: Complement C1s subcomponent (Homo sapiens, UniProt P09871); experiment: Complement C1s ELISA. [Related pubchem assays: 538, 787 ]; format: functional
HEK293 [9] = experiment: NOD2 signaling inhibitors in MDP-stimulated cells, cell-based, uHTS, luminescence (AID 2001); format: functional; details: Homo sapiens
HEK293 [10] = experiment: cells; format: functional, cell-based; details: Homo sapiens
Protein RecA = target: T5, Protein RecA (Mycobacterium tuberculosis, UniProt P9WHJ3); experiment: Fluorescence Cell-Free Homogeneous Dose Retest to Identify Inhibitors of RecA-Intein Splicing Activity. [Related pubchem assays (depositor defined):AID2097, AID2223, AID489010, AID492950]; format: functional
T5 sequence (P9WHJ3 whole entry): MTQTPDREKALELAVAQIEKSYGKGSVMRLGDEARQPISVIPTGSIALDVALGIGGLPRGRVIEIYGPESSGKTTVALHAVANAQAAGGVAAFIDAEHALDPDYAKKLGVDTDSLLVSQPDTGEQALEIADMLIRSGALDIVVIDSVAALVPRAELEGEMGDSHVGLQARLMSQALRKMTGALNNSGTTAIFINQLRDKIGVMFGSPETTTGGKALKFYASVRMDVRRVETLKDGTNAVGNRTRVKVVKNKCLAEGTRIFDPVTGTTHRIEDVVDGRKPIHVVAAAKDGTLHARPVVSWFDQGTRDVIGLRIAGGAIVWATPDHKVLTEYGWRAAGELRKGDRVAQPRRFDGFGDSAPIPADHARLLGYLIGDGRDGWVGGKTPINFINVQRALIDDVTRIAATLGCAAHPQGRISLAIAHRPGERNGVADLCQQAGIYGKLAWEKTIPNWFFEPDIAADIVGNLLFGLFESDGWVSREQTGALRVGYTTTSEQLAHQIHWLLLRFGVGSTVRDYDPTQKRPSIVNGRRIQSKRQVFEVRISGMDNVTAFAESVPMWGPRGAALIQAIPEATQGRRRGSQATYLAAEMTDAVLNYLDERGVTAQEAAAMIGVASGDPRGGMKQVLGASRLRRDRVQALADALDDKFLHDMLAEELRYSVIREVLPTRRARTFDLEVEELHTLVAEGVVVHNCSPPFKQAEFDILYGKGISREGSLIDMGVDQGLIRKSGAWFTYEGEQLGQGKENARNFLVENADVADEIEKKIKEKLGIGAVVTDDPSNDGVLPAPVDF

[11] = target: T6, Replicative DNA helicase DnaB (Mycobacterium tuberculosis, UniProt P9WMR3); experiment: DnaB intein splicing inhibitors, dose response, biochemical, cell-free fluorescence (AID 449749); format: functional
T6 sequence (P9WMR3 whole entry): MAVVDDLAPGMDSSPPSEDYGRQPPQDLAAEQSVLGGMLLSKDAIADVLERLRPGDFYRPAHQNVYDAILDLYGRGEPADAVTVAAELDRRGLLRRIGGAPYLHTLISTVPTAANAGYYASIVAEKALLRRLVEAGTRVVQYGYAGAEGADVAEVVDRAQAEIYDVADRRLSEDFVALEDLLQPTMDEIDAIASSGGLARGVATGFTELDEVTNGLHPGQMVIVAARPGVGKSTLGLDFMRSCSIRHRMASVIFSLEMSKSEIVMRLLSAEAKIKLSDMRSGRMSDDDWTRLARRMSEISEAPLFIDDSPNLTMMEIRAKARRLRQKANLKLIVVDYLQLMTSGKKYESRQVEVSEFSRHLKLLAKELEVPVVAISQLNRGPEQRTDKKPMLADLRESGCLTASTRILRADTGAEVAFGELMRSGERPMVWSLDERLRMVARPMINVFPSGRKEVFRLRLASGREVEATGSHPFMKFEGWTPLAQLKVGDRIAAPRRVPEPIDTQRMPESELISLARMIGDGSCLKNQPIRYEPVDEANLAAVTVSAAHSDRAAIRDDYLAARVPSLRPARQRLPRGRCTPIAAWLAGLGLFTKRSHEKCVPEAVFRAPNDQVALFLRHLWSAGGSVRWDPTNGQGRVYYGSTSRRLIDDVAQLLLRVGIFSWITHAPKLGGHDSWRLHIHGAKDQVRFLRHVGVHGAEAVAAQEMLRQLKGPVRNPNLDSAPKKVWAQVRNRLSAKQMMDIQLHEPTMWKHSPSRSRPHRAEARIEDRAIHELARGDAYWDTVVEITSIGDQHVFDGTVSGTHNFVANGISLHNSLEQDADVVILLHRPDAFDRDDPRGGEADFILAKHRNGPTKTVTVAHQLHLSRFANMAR

[12] = target: Nucleotide-binding oligomerization domain-containing protein 2 (Homo sapiens, UniProt Q9HC29); experiment: inhibition of NOD2-driven NF-kB reporter – cell-based, luminescence, uHTS, HEK293 (AID 1566); format: functional
Sequence of Nucleotide-binding oligomerization domain-containing protein 2 (Q9HC29 whole entry, the tested form may be a part): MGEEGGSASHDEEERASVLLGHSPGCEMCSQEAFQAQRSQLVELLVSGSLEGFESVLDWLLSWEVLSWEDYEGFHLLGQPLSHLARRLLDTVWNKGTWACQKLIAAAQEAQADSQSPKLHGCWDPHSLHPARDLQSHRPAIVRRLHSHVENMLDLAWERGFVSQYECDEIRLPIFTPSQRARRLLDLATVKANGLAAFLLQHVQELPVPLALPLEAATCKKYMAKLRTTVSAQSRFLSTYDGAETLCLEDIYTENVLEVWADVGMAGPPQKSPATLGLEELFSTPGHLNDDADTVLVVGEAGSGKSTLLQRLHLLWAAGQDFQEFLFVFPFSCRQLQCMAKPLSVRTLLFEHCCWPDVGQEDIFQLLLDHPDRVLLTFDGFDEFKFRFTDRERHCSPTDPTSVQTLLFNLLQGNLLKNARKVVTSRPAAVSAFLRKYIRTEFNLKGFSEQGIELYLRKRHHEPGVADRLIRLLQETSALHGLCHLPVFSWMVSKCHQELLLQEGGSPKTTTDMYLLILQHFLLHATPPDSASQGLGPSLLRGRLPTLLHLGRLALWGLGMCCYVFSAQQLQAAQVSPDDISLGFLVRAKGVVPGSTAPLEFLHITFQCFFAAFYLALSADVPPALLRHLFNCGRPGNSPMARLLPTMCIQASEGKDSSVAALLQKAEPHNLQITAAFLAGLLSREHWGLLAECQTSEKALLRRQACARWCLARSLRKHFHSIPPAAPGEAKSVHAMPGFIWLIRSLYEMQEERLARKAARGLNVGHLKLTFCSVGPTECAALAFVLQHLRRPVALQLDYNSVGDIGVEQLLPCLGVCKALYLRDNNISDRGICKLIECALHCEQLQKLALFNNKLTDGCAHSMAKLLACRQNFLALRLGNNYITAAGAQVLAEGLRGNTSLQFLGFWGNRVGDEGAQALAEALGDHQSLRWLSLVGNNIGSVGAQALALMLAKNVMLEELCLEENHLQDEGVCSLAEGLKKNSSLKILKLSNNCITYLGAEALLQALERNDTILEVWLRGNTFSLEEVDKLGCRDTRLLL

HEK293 [13] = experiment: cells; format: functional, cell-based; details: Homo sapiens; remark: listed apart in the source
HEK293 [14] = experiment: inhibition of NOD1-driven NF-kB reporter – cell-based, luminescence, uHTS, primary screen (AID 1578); format: functional; details: Homo sapiens
Hexokinase = Hexokinase (Trypanosoma brucei, UniProt Q38C41); experiment: Confirmation assay for inhibitors of Trypanosoma brucei hexokinase 1-Analogue-first series. [Related pubchem assays (depositor defined):AID1430, AID1632, AID2516, AID2560, AID2579, AID2600, AID449725, AID492951]; format: functional
Sequence of Hexokinase (Q38C41 whole entry): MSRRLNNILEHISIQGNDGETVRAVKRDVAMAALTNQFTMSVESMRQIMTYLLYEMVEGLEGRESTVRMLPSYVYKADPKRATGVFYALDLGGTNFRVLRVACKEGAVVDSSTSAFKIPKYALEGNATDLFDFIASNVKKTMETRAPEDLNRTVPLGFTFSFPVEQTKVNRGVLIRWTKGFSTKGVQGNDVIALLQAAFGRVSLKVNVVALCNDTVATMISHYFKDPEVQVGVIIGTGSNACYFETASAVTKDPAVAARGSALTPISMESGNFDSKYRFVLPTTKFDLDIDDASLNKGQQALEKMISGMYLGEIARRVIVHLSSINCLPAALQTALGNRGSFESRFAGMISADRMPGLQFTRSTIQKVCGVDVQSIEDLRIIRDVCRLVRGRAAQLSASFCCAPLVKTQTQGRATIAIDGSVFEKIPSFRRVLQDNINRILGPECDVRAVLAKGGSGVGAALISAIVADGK

[15] = target: Glutathione S-transferase omega-1 (Homo sapiens, UniProt P78417); experiment: IC50 of human GSTO1 blockade by gel ABPP – biochemical, SE-Rh probe, in-gel fluorescence, powder samples, set 2, late-stage follow-up (AID 463142); format: functional
Sequence of Glutathione S-transferase omega-1 (P78417 whole entry): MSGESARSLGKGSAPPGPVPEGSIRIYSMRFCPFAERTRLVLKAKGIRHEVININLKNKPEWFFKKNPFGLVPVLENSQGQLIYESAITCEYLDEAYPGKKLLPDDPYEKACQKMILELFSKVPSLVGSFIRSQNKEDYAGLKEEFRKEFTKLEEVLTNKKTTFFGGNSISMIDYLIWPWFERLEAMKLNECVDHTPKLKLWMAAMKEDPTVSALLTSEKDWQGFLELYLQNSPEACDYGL

[16] = target: Sphingosine 1-phosphate receptor 4 (Homo sapiens, UniProt O95977); experiment: potency of S1P4 activators – cell-based, fluorescence, synthesized compounds, late-stage follow-up (AID 463107); format: functional
Sequence of Sphingosine 1-phosphate receptor 4 (O95977 whole entry): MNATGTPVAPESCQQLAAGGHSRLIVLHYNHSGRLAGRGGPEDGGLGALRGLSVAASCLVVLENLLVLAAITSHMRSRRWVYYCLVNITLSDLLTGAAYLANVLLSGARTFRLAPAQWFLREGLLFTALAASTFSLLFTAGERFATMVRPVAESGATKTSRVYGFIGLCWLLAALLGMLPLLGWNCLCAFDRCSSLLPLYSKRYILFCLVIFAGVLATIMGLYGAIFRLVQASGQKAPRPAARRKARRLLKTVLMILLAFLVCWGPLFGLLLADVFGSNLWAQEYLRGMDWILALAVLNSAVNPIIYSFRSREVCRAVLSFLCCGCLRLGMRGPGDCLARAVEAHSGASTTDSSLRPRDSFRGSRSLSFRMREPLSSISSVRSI

[17] = target: Voltage-dependent T-type calcium channel subunit alpha-1H (Homo sapiens, UniProt O95180); experiment: human CACNA1H calcium influx blockade – cell-based, synthetic library set 1, calcium flux (AID 493022); format: functional
[18] = target: DNA dC->dU-editing enzyme APOBEC-3G (Homo sapiens, UniProt Q9HC16); experiment: Dose Response confirmation of small molecule APOBEC3G DNA Deaminase Inhibitors via a fluorescence-based single-stranded DNA deaminase assay. [Related pubchem assays (depositor defined):AID493012, AID493028]; format: functional
Sequence of DNA dC->dU-editing enzyme APOBEC-3G (Q9HC16 whole entry): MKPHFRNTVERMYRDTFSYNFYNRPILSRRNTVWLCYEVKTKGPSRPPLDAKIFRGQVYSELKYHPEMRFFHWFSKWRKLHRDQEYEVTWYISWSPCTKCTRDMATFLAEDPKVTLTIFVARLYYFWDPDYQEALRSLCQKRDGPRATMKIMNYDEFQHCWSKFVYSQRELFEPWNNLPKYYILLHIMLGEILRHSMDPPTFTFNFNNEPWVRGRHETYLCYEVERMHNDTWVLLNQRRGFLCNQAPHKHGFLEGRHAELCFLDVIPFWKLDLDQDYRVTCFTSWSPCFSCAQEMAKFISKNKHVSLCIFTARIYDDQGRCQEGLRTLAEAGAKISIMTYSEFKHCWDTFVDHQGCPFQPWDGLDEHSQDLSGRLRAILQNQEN

[19] = target: DNA dC->dU-editing enzyme APOBEC-3A (Homo sapiens, UniProt P31941); experiment: A3A deaminase inhibition for selectivity – biochemical, dose response (AID 504722); format: functional
Sequence of DNA dC->dU-editing enzyme APOBEC-3A (P31941 whole entry): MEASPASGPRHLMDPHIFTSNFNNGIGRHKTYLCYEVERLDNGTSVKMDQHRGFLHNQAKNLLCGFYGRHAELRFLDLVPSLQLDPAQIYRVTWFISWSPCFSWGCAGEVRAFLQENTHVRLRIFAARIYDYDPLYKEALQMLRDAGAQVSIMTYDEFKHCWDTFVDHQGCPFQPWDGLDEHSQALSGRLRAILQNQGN

[20] = HepG2 cell cytotoxicity, dose response, cytotoxicity control for non-replicating M. tuberculosis project (AID 489018); format: functional; details: Mycobacterium tuberculosis
[21] = Vero E6 cell cytotoxicity, dose response, cytotoxicity control for non-replicating M. tuberculosis project, secondary assay (AID 492998); format: functional, VeroE6; details: Vero C1008
[22] = THP-1 cell cytotoxicity, dose response, cytotoxicity control for non-replicating M. tuberculosis project (AID 489025); format: functional
cells = format: functional
INS1 = experiment: INS-1E survival protection against cytokine death – cell-based, luminescence, retest, dose response (AID 449756); format: functional; details: Rattus norvegicus;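 also: cell death triggered by IL-1 beta plus TNF-alpha plus IFN-gamma mixture; protective hits raise ATP signal compared with cytokine alone wells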
[23] = NIH3T3 cell viability loss – ATP luminescence, mouse fibroblasts, counter-screen, dose response (AID 2010); format: functional, cell-based;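 also: cells exposed to compound for about 90 hours before reading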
[24] = Trypanosoma cruzi growth suppression in host cells – NIH3T3 host cells, beta-gal luminescence, confirmation (AID 2044); format: functional, cell-based;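 also: intracellular parasites grown in NIH/3T3 mouse fibroblasts as host cells; luminescent beta-galactosidase reporter signal from transgenic T. cruzi replicating inside host cells; inhibitors lower the luminescence signal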

T1 sequence (P63165 whole entry): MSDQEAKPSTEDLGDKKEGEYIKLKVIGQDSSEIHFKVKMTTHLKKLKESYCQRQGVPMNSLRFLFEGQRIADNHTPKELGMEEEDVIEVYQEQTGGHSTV

Question: With CCOc1ccc(C=NNc2ccc(S(=O)(=O)Nc3ccccc3C(=O)O)cc2[N+](=O)[O-])cc1 as the compound, how does the IC50 [1] read?
Answer: The IC50 was 51.3 µM (inactive).

Question: And the IC50 (Beta-galactosidase)?
Answer: Its IC50 is > 66.6 µM (inactive).

Question: What about the IC50 [2] of the same compound?
Answer: The IC50 was 7.56 µM (active).

Question: And the IC50 [3]?
Answer: Its IC50 is 3.67 µM (active).

Question: What about the IC50 [4] of the same compound?
Answer: The IC50 was > 66 µM (inactive).

Question: What about the IC50 [5] of the same compound?
Answer: The IC50 was 5.78 µM (active).

Question: What about the IC50 [6] of the same compound?
Answer: Its IC50 is 15.6 µM (active).

Question: What about the IC50 [7] of the same compound?
Answer: The IC50 was 4.41 µM (active).

Question: With O=C(c1csc2c1CCCC2)n1cccn1 as the compound, how does the IC50 (Coagulation factor XII) read?
Answer: Its IC50 is 5.39 µM (active).

Question: And the IC50 [8]?
Answer: Its IC50 is > 50 µM (not active).

Question: Which IC50 (HEK293 [9]) does the source give for CCc1nc(SCC(=O)N2CCN(c3ccccc3)CC2)c2oc3ccccc3c2n1 here?
Answer: The IC50 was 5.63 µM (inactive).

Question: And the IC50 (HEK293 [10])?
Answer: The IC50 was 17.7 µM (active).

Question: And the EC50 (Protein RecA)?
Answer: Its EC50 is > 380 µM (inactive).

Question: What about the AC50 [11] of the same compound?
Answer: Its AC50 is 2 µM (active).

Question: What about the EC50 [12] of the same compound?
Answer: The EC50 was > 20 µM (inactive).

Question: What about the IC50 (HEK293 [13]) of the same compound?
Answer: Its IC50 is > 20 µM (inactive).

Question: And the EC50 (HEK293 [14])?
Answer: The EC50 was 4.73 µM (active).

Question: Which IC50 (Hexokinase) does the source give for COC(=O)c1cc(Cl)ccc1NC(=O)c1ccc(OC)cc1 here?
Answer: The IC50 was > 25 µM (inactive).

Question: Which IC50 [15] does the source give for C#CCN(CCCN(C(=O)CCl)c1ccc([N+](=O)[O-])cc1)C(=O)C(F)(F)F here?
Answer: Its IC50 is 0.023 µM (active).

Question: Which EC50 [16] does the source give for COC(=O)c1ncccc1OCCOc1ccc(Cl)cc1Cl here?
Answer: Its EC50 is > 50 µM (inactive).

Question: With O=C(COc1ccc(Cl)cc1)Nc1nnc(-c2ccc(F)cc2)o1 as the compound, how does the EC50 [17] read?
Answer: The EC50 was 1.8 µM (active).

Question: With CC(/C=N/n1c(S)nnc1-c1ccco1)=C\c1ccco1 as the compound, how does the IC50 [18] read?
Answer: The IC50 was 2.62 µM (active).

Question: What about the IC50 [19] of the same compound?
Answer: Its IC50 is > 100 µM (inactive).

Question: Which CC50 [20] does the source give for Cc1cc(NC2CCCCC2)nc(NCc2ccccc2)n1 here?
Answer: The CC50 was 16.1 µM (active).

Question: And the CC50 [21]?
Answer: The CC50 was > 20 µM (active).

Question: What about the CC50 [22] of the same compound?
Answer: The CC50 was 12.9 µM (active).

Question: And the IC50 (cells)?
Answer: Its IC50 is 10.7 µM (active).

Question: What about the AC50 (INS1) of the same compound?
Answer: Its AC50 is 2.83 µM (active).

Question: And the EC50 [23]?
Answer: Its EC50 is 8.62 µM (active).

Question: What about the EC50 [24] of the same compound?
Answer: Its EC50 is 1.61 µM (active).
